The source of these data is patent US20120021117A1, “METHOD FOR PRESERVING DRINKS” (LANXESS DEUTSCHLAND GMBH, priority 2008, published 2012).

Assay [1] can be described thus: Microbiological keeping time of bottled orange juice drink without sorbate (Example 3). Particulars: 0.5 l PET bottles, 500 ppm limonene-containing mixture and/or 200 ppm of DMDC, visual and organoleptic inspection. From the text: The samples were thereafter regularly inspected visually and organoleptically.
Assay [2] deals with Lactobacillus brevis. Put plainly: Microbiological colony count determination in inoculated apple juice/water 1:1 after 24 hours. Particulars: Cell inoculum approximately 100 cells/ml; DMDC concentration not given; duplicate. It counts as cell-based.
Assay [3] relates to Saccharomyces cerevisiae. The assay can be described thus: Activity of DMDC, LF and their mixtures in inoculated apple juice drink, cell count after one week. It counts as cell-based. Particulars: inoculum 375 cells/ml.
Procedure: The activity of the individual components DMDC and limonene (in a formulation) and the activity of mixtures of DMDC and limonene (in a formulation) was tested against Saccharomyces cerevisiae.
For this, an apple juice drink was inoculated with 375 cells of Saccharomyces cerevisiae per ml and the active ingredient concentrations reported in Table 1 were added. In the table, DMDC is dimethyl dicarbonate, added as such.
LF was added first and then DMDC. Subsequently thereto the mixtures were thoroughly shaken and incubated at 26° C. for one week. The cell count present was then determined.
The conditions of assay [4]: orange juice drink with potassium sorbate equivalent to 100 ppm of sorbic acid, 0.5 l PET bottles; 500 ppm limonene-containing mixture and/or 200 ppm of DMDC; visual and organoleptic inspection.
Procedure: Thereafter the drink was packaged directly on a drinks bottling line (10 000 l/h) into 0.5 l PET bottles.
In this case the limonene-containing mixture was added during final mixing of the drink, whereas for metering DMDC, an electromagnetic metering pump connected upstream of the filler was used.
As comparative experiment, the same drink was packaged non-preserved, or packaged treated only with DMDC or only with limonene.

Like-named read-outs stand apart in the source and are kept apart here.

For `COC(=O)OC(=O)OC` [DMDC, dimethyl dicarbonate], in assay [1], the microbiological keeping time entry was “approximately 20 days”. Moreover, the “cell count determination after 24 hours” value in assay [2] is 54/75. For the same compound, the “efficacy, defined as freedom from cells (concentration, component alone)” value in assay [3] is reported as “above 150 ppm”.

For the compound `C/C=C/C=C/C(=O)O` [sorbic acid], in assay [4], the microbiological keeping time result is “approximately 6 days”.
